Measured values published in US20070059364A1, “Active substance combination comprising a compound with npy receptor affinity and a compound with 5-ht6 receptor affinity” (Laboratorios Del Dr. Esteve S.A., priority 2003, published 2007).
Structures can show the parent of a compound that is named as a salt.

Structure (SMILES)	melting point
Cc1cccc2c1N(C1CCN(S(=O)(=O)c3cccc(Cl)c3Cl)CC1)C(=O)OC2	184 to 185 °C
Cl.O=C1c2ccccc2-c2cc(NC(=O)C(c3ccccc3)N3CCC(N4C(=O)OCc5ccccc54)CC3)ccc21 (stereo not drawn)	247 to 249 °C
CN(C)CCc1c[nH]c2ccc(NS(=O)(=O)c3cccc4nsnc34)cc12	192 °C
CN(C)CCc1c[nH]c2ccc(NS(=O)(=O)c3ccc4c(Cl)cccc4c3)cc12	230 to 240 °C (dec.)
CN(C)CCc1c[nH]c2ccc(NS(=O)(=O)c3ccc(-c4ccccc4)cc3)cc12	184 to 186 °C
CCN(CC)CCc1c[nH]c2ccc(NS(=O)(=O)c3ccc4ccccc4c3)cc12	134 to 136 °C
CCCN(CCC)CCc1c[nH]c2ccc(NS(=O)(=O)c3cccc4ccccc34)cc12	76 to 80 °C
CCCCN(CCCC)CCc1c[nH]c2ccc(NS(=O)(=O)c3sc4ccc(Cl)cc4c3C)cc12	79 to 80 °C
CCCCN(CCCC)CCc1c[nH]c2ccc(NS(=O)(=O)c3cccc4ccccc34)cc12	111 to 113 °C
Cc1cccc2c1N(C1CCN(CC(=O)Nc3ccc4c(c3)-c3ccccc3C4=O)CC1)C(=O)OC2.Cl	233 to 236 °C
CCN(CC)CCc1c[nH]c2ccc(NS(=O)(=O)c3c(Cl)nc4sccn34)cc12	197 to 198 °C
Cl.O=C(CN1CCC(N2C(=O)OCc3cc(Cl)ccc32)CC1)Nc1ccccc1	265 to 277 °C
Cl.N#Cc1ccc(NC(=O)CN2CCC(N3C(=O)OCc4ccccc43)CC2)cc1	268 to 282 °C
Cc1cccc2c1N(C1CCN(CC(=O)Nc3ccc(C(=O)c4ccccc4)cc3)CC1)C(=O)OC2.Cl	217 °C
Cl.O=C(CN1CCC(N2C(=O)OCc3cc(Cl)ccc32)CC1)Nc1ccc(C(=O)c2ccccc2)cc1	256 to 259 °C
Cc1ccc2c(c1)COC(=O)N2C1CCN(CC(=O)Nc2ccc3c(c2)C(=O)c2ccccc2-3)CC1.Cl	281 to 285 °C
Cl.O=C(CN1CCC(N2C(=O)OCc3ccccc32)CC1)Nc1cccc(C(=O)c2ccccc2)c1	214 to 218 °C
CCN(c1ccccc1)c1ccc(NC(=O)CN2CCC(N3C(=O)OCc4ccc(C)cc43)CC2)cc1	199 °C
O=C(CN1CCC(N2C(=O)OCc3cccc(Cl)c32)CC1)Nc1ccc2[nH]c3ccccc3c2c1	180 °C
O=C(CN1CCC(N2C(=O)OCc3ccccc32)CC1)Nc1ccc2c(c1)CCC2=O	206 to 209 °C
CCN(CC)CCc1c[nH]c2ccc(NS(=O)(=O)c3cccc4ccccc34)cc12 (as salt: hydrochloride)	255 to 257 °C
CCN(CC)CCc1c[nH]c2ccc(NS(=O)(=O)c3sc4ccc(Cl)cc4c3C)cc12 [24e]	53 to 56 °C
CCN(CC)CCc1c[nH]c2ccc(NS(=O)(=O)c3sc4ccc(Cl)cc4c3C)cc12 [Example 1c, N-[3-(2-diethylaminoethyl)-1H-indol-5-yl]-5-chloro-3-methylbenzo[b]thiophene-2-sulphonamide]	170 to 173 °C
Cc1c(S(=O)(=O)Nc2cccc3c2ccn3CCN(C)C)sc2ccc(Cl)cc12 [Example 1d, N-[1-(2-dimethylaminoethyl)-1H-indole-4-yl]-5-chloro-3-methyl-benzo[b]thiophene-2-sulfonamide]	78 to 80 °C
Cc1c(S(=O)(=O)Nc2ccc3c(ccn3CCN(C)C)c2)sc2ccc(Cl)cc12 [Example 1e, N-[1-(2-dimethylaminoethyl)-1H-indole-5-yl]-5-chloro-3-methylbenzo[b]thiophene-2-sulfonamide]	71 to 73 °C
CN1CC=C(c2cn(S(=O)(=O)C3CCCCC3)c3ccc([N+](=O)[O-])cc23)CC1 [Example 1h, 1-Cyclohexanesulfonyl-3-(1-methyl-1,2,3,6-tetrahydropyridine-4-yl)-5-nitro-1H-indole]	155 to 160 °C

Structure (SMILES)	melting point
CN(C)CCn1ccc2ccc(NS(=O)(=O)c3ccc4ccccc4c3)cc21 [Example 2f, N-[1-(2-Dimethylaminoethyl)-1H-indol-6-yl]-naphthalene-2-sulfonamide]	140 to 143 °C
Cc1c(S(=O)(=O)Nc2cccc3ccn(CCN(C)C)c23)sc2ccc(Cl)cc12 [Example 2g, N-[1-(2-dimethylaminoethyl)-1H-indole-7-yl]-5-chloro-3-methylbenzo[b]thiophene-2-sulfonamide]	57 to 65 °C
CN1CC=C(c2cn(S(=O)(=O)C3CCCCC3)c3ccc(Cl)cc23)CC1 [Example 2h, 5-Chloro-1-cyclohexanesulfonyl-3-(1-methyl-1,2,3,6-tetrahydropyridine-4-yl)-1H-indole]	88 to 90 °C
CCN(CC)CCc1c[nH]c2ccc(NS(=O)(=O)c3cccc4ccccc34)cc12.Cl [Example 3c, Hydrochloride N-[3-(2-diethylaminoethyl)-1H-indol-5-yl]naphthalene-1-sulphonamide]	255 to 257 °C
CN(C)CCn1ccc2cc(NS(=O)(=O)c3cccc4ccccc34)ccc21 [Example 3e, N-[1-(2-dimethylaminoethyl)-1H-indole-5-yl]-naphthalene-1-sulfonamide]	179 to 181 °C
CN(C)CCn1ccc2ccc(NS(=O)(=O)c3cccc4ccccc34)cc21 [Example 3f, N-[1-(2-Dimethylaminoethyl)-1H-indol-6-yl]-naphthalene-1-sulfonamide]	139 to 142 °C
CN(C)CCn1ccc2cccc(NS(=O)(=O)c3ccc(-c4ccccc4)cc3)c21 [Example 3g, N-[1-(2-dimethylaminoethyl)-1H-indole-7-yl]-4-phenylbenzenesulfonamide]	137 to 140 °C
CN1CC=C(c2cn(S(=O)(=O)C3CCCCC3)c3ccc(N)cc23)CC1 [Example 3h, 5-Amino-1-cyclohexanesulfonyl-3-(1-methyl-1,2,3,6-tetrahydropyridine-4-yl)-1H-indole]	75 °C (dec.)
CCN(CC)CCc1c[nH]c2ccc(NS(=O)(=O)c3cc(Cl)cc(Cl)c3)cc12 [Example 4c, N-[3-(2-diethylaminoethyl)-1H-indol-5-yl]-3,5-dichlorobenzenesulphonamide]	168 to 170 °C
CN(C)CCn1ccc2c(NS(=O)(=O)c3ccc(-c4ccccc4)cc3)cccc21 [Example 4d, N-[1-(2-dimethylaminoethyl)-1H-indole-4-yl]-4 phenylbenzenesulfonamide]	137 to 140 °C
CN(C)CCn1ccc2cc(NS(=O)(=O)c3cccc4c(Cl)cccc34)ccc21 [Example 4e, N-[1-(2-dimethylaminoethyl)-1H-indole-5-yl]-5-chloronaphthalene-1-sulfonamide]	172 to 174 °C
CN(C)CCn1ccc2cccc(NS(=O)(=O)c3c(Cl)nc4sccn34)c21 [Example 4g, N-[1-(2-dimethylaminoethyl)-1H-indole-7-yl]-6-chloroimidazo[2,1-b]thiazole-5-sulfonamide]	73 to 76 °C
Cl.O=S(=O)(C1CCCCC1)n1cc(C2=CCN3CCCC3C2)c2cc(F)ccc21 (stereo not drawn) [Example 4h, 1-Cyclohexanesulfonyl-5-fluoro-3-(1,2,3,5,8,8a-hexahydro-indolizine-7-yl)-1H-indole hydrochloride]	263 °C (dec.)
CCN(CC)CCc1c[nH]c2ccc(NS(=O)(=O)c3ccc(-c4ccccc4)cc3)cc12 [Example 5c, N-[3-(2-diethylaminoethyl)-1H-indol-5-yl]-4-phenylbenzenesulphonamide]	161 to 163 °C
Cc1c(S(=O)(=O)Nc2cccc3ccn(CCN4CCCC4)c23)sc2ccc(Cl)cc12 [Example 5g, 5-chloro-3-methyl-N-(1-(2-(pyrrolidin-1-yl)ethyl)-1H-indol-7-yl)-benzo[b]thiophen-2-sulfonamide]	82 to 85 °C
CCN(CC)CCc1c[nH]c2ccc(NS(=O)(=O)c3ccc(Cl)s3)cc12 [Example 6c, N-[3-(2-diethylaminoethyl)-1H-indol-5-yl]-5-chlorothiophene-2-sulphonamide]	180 to 181 °C
CN(C)CCn1ccc2cc(NS(=O)(=O)c3cccc4cccnc34)ccc21 [Example 6e, N-[1-(2-dimethylaminoethyl)-1H-indole-5-yl]-quinoline-8-sulfonamide]	161 to 164 °C
O=S(=O)(Nc1cccc2ccn(CCN3CCCC3)c12)c1cccc2ccccc12 [Example 6g, N-(1-(2-(pyrrolidin-1-yl)ethyl)-1H-indol-7-yl)naphthalene-1-sulfonamide]	196 to 199 °C
Cc1c(S(=O)(=O)Nc2ccc3[nH]cc(CCN(C)C)c3c2)sc2ccc(Cl)cc12 [Example 7c, N-[3-(2-dimethylaminoethyl)-1H-indol-5-yl]-5-chloro-3-methylbenzo[b]thiophene-2-sulphonamide]	226 to 227 °C
CN(C)CCn1ccc2c(NS(=O)(=O)c3cc(Cl)cc(Cl)c3)cccc21 [Example 7d, N-[1-(2-dimethylaminoethyl)-1H-indole-4-yl]-3,5-dichlorobenzenesulfonamide]	113 to 118 °C
CN(C)CCn1ccc2cc(NS(=O)(=O)c3ccc(Oc4ccccc4)cc3)ccc21 [Example 7e, N-[1-(2-dimethylaminoethyl)-1H-indole-5-yl]-4-phenoxybenzenesulfonamide]	138 to 140 °C
CN(C)CCc1c[nH]c2ccc(NS(=O)(=O)c3cccc4ccccc34)cc12 [Example 8c, N-[3-(2-dimethylaminoethyl)-1H-indol-5-yl]naphthalene-1-sulphonamide]	203 to 205 °C
CN(C)CCn1ccc2c(NS(=O)(=O)c3c(Cl)nc4sccn34)cccc21 [Example 8d, 6-chloro-N-[1-(2-dimethylaminoethyl)-1H-indol-4-yl]-imidazo[2,1-b]thiazole-5-sulfonamide]	95 to 100 °C
Cc1ccc(S(=O)(=O)Nc2ccc3c(ccn3CCN(C)C)c2)cc1 [Example 8e, N-[1-(2-dimethylaminoethyl)-1H-indole-5-yl]-4-methylbenzenesulfonamide]	126 to 128 °C
CN(C)CCn1ccc2ccc(NS(=O)(=O)c3cc(Cl)cc(Cl)c3)cc21 [Example 8f, N-[1-(2-Dimethylaminoethyl)-1H-indol-6-yl]-3,5-dichlorobenzenesulfonamide]	150 to 159 °C
